Experimental data: patent US20210221848A1, “POLYMYXIN DERIVATIVES AND THEIR USE IN COMBINATION THERAPY TOGETHER WITH DIFFERENT ANTIBIOTICS” (priority 2014, published 2021)
Where two headings read alike, the source gives them in different places.

Columns and labels:
[1] = test system: A. baumanii strains with elevated MICs to Polymyxin B; assay: MIC against strains with elevated MICs to Polymyxin B; assay type: cell-based, Acinetobacter baumannii; conditions: Table 6D; for MIC A. baumannii 053: strain 053, elevated MIC to Polymyxin B; for MIC A. baumannii 056: strain 056, elevated MIC to Polymyxin B; for MIC A. baumannii 068: strain 068, elevated MIC to Polymyxin B; for MIC A. baumannii 070: strain 070, elevated MIC to Polymyxin B
Method in brief: (§1)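 Duplicate runs; >2-fold disagreement = invalid, <2-fold = lower value kept. Inoculum: colonies (18-24 h Mueller-Hinton agar) suspended directly to 0.5 McFarland. Multiple tests → modal MIC.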

[2] = test system: P. aeruginosa strains with elevated MICs to Polymyxin B; assay: MIC against strains with elevated MICs to Polymyxin B; assay type: cell-based, Pseudomonas aeruginosa; conditions: Table 6D; for MIC P. aeruginosa 066: strain 066, elevated MIC to Polymyxin B; for MIC P. aeruginosa 067: strain 067, elevated MIC to Polymyxin B; for MIC P. aeruginosa 065: strain 065, elevated MIC to Polymyxin B
Method in brief: as §1

[3] = test system: K. pneumoniae strains with elevated MICs to Polymyxin B; assay: as above; assay type: cell-based, Klebsiella pneumoniae; conditions: Table 6D; for MIC K. pneumoniae 062: strain 062, elevated MIC to Polymyxin B; for MIC K. pneumoniae 063: strain 063, elevated MIC to Polymyxin B; for MIC K. pneumoniae 064: strain 064, elevated MIC to Polymyxin B; for MIC K. pneumoniae 655: strain 655, elevated MIC to Polymyxin B
Method in brief: as §1

[4] = test system: E. coli strains with elevated MICs to Polymyxin B; assay: as above; assay type: cell-based, Escherichia coli; conditions: Table 6D; for MIC E. coli 058: strain 058, elevated MIC to Polymyxin B; for MIC E. coli 059: strain 059, elevated MIC to Polymyxin B; for MIC E. coli 060: strain 060, elevated MIC to Polymyxin B; for MIC E. coli 061: strain 061, elevated MIC to Polymyxin B
Method in brief: as §1

[5] = absence of a second agent, Table 6B

Question: What does the source list for “(cis-5-octylpiperidine)- 3-carbonyl polymyxin B nonapeptide [Example D21]”?
Answer: MIC, E. coli ATCC 25922 (E. coli; [5]): 0.5 micrograms/mL; MIC, E. coli NCTC 13441 (E. coli; [5]): 0.5 micrograms/mL; MIC A. baumannii 053 [1]: 8 micrograms/mL; MIC A. baumannii 056 [1]: 4 micrograms/mL; MIC A. baumannii 068 [1]: 1 micrograms/mL; MIC A. baumannii 070 [1]: 2 micrograms/mL; MIC, K. pneumoniae ATCC 4352 (K. pneumoniae; [5]): 0.25 micrograms/mL; MIC, K. pneumoniae ATCC BAA-2146 (K. pneumoniae; K. pneumoniae ATCC BAA-2146, absence of a second agent, Table 6B): 1 micrograms/mL; MIC, P. aeruginosa ATCC 27853 (P. aeruginosa; [5]): 0.5 micrograms/mL; MIC, P. aeruginosa CCUG 59347 (P. aeruginosa; [5]): 0.5 micrograms/mL; MIC P. aeruginosa 066 [2]: 2 micrograms/mL; MIC P. aeruginosa 067 [2]: 4 micrograms/mL; MIC K. pneumoniae 062 [3]: 2 micrograms/mL; MIC K. pneumoniae 063 [3]: 32 micrograms/mL; MIC K. pneumoniae 064 [3]: 1 micrograms/mL; MIC K. pneumoniae 655 [3]: 32 micrograms/mL; MIC E. coli 058 [4]: 1 micrograms/mL; MIC E. coli 059 [4]: 0.5 micrograms/mL; MIC E. coli 060 [4]: 1 micrograms/mL; MIC E. coli 061 [4]: 2 micrograms/mL; MIC, A. baumannii ATCC BAA-747 (A. baumannii; [5]): 0.5 micrograms/mL; MIC, A. baumannii NCTC 13424 (A. baumannii; [5]): 2 micrograms/mL

Question: Which results are given for “trans-5-phenyl- piperidine-3- carbonyl L-Thr-L- Dap-polymyxin B heptapeptide [Example D84]”?
Answer: MIC, E. coli ATCC 25922 (E. coli; sole activity, Table 6C): 0.25 micrograms/mL; MIC, E. coli NCTC 13441 (E. coli; sole activity, Table 6C): 0.06 micrograms/mL; MIC A. baumannii 053 [1]: >64 micrograms/mL; MIC A. baumannii 056 [1]: 32 micrograms/mL; MIC A. baumannii 068 [1]: 8 micrograms/mL; MIC A. baumannii 070 [1]: 16 micrograms/mL; MIC, K. pneumoniae ATCC 4352 (K. pneumoniae; sole activity, Table 6C): 0.125 micrograms/mL; MIC, P. aeruginosa ATCC 27853 (P. aeruginosa; sole activity, Table 6C): 0.5 micrograms/mL; MIC, P. aeruginosa CCUG 59347 (P. aeruginosa; sole activity, Table 6C): 0.5 micrograms/mL; MIC P. aeruginosa 065 [2]: 8 micrograms/mL; MIC P. aeruginosa 066 [2]: 2 micrograms/mL; MIC P. aeruginosa 067 [2]: >64 micrograms/mL; MIC K. pneumoniae 062 [3]: >64 micrograms/mL; MIC K. pneumoniae 063 [3]: 32 micrograms/mL; MIC K. pneumoniae 064 [3]: 8 micrograms/mL; MIC K. pneumoniae 655 [3]: 16 micrograms/mL; MIC E. coli 058 [4]: 4 micrograms/mL; MIC E. coli 059 [4]: 8 micrograms/mL; MIC E. coli 060 [4]: 4 micrograms/mL; MIC E. coli 061 [4]: 8 micrograms/mL; MIC, A. baumannii ATCC BAA-747 (A. baumannii; sole activity, Table 6C): 0.06 micrograms/mL; MIC, A. baumannii NCTC 13424 (A. baumannii; sole activity, Table 6C): 0.25 micrograms/mL

Question: What does the source list for “(S)-4-amino-2- ((2- trifluoromethyben- zyl)amino)butanoyl L-Thr-L-Dap- polymyxin B heptapeptide [Example D88]”?
Answer: MIC, E. coli ATCC 25922 (E. coli; sole activity, Table 6C): 0.06 micrograms/mL; MIC A. baumannii 053 [1]: >64 micrograms/mL; MIC A. baumannii 056 [1]: 32 micrograms/mL; MIC A. baumannii 068 [1]: 8 micrograms/mL; MIC A. baumannii 070 [1]: 16 micrograms/mL; MIC, K. pneumoniae ATCC 4352 (K. pneumoniae; sole activity, Table 6C): 0.06 micrograms/mL; MIC, P. aeruginosa ATCC 27853 (P. aeruginosa; sole activity, Table 6C): 0.125 micrograms/mL; MIC, P. aeruginosa CCUG 59347 (P. aeruginosa; sole activity, Table 6C): 0.5 micrograms/mL; MIC P. aeruginosa 065 [2]: 0.25 micrograms/mL; MIC P. aeruginosa 066 [2]: 1 micrograms/mL; MIC P. aeruginosa 067 [2]: >64 micrograms/mL; MIC K. pneumoniae 062 [3]: 32 micrograms/mL; MIC K. pneumoniae 063 [3]: 16 micrograms/mL; MIC K. pneumoniae 064 [3]: 1 micrograms/mL; MIC K. pneumoniae 655 [3]: 16 micrograms/mL; MIC E. coli 058 [4]: 2 micrograms/mL; MIC E. coli 059 [4]: 8 micrograms/mL; MIC E. coli 060 [4]: 4 micrograms/mL; MIC E. coli 061 [4]: 16 micrograms/mL; MIC, A. baumannii ATCC BAA-747 (A. baumannii; sole activity, Table 6C): 0.06 micrograms/mL; MIC, A. baumannii NCTC 13424 (A. baumannii; sole activity, Table 6C): 0.06 micrograms/mL
